What was measured:
M17-SYNwt cells [1] = assay: α-synuclein cytotoxicity assay (LDH leakage from paraquat-treated M17-SYNwt cells); assay type: cell-based, human; details: Table 2
Text: An α-synuclein expression plasmid was constructed by sub-cloning the NcoI/XhoI fragment from 212T-SYN(WT) (Griffioen et al., Biochem Biophys Acta (2006) 1762(3):312-318) containing the cDNA of human wild type α-synuclein correspondingly into a standard mammalian expression vector pcDNA3.1 resulting in plasmid pcDNA3.1-SYNwt. Plasmid pcDNA3.1 and pcDNA3.1-SYNwt were transfected to human neuroblastoma cells (ATCC No. CRL-2267) and independent clonal lines with the plasmids stably integrated into the genome were selected. […] Over-expression of α-synuclein in M17-SYNwt cell lines was confirmed by Western analysis.
(§1) Due to the high levels of α-synuclein M17-SYNwt cells are exquisitely sensitivity to paraquat, a well-known risk factor of synuclein-dependent neuronal degeneration. In degenerated or dead cells lactate dehydrogenase (LDH) is leaked out of the cells into the extracellular environment due to a loss of plasma-membrane integrity. This principle was used to determine cytotoxicity by quantifying the level of leaked LDH into the growth medium.
(§2) The detailed method for determining α-synuclein cytotoxicity was as follows: From appropriate precultures of M17 and M17-SYN cells were seeded at 50000 cells/cm^2 in Optimem Reduced Serum without phenol red (InVitrogen, Cat. 31985-047) supplemented with 5% fetal calf serum, 1 mM sodium pyruvate, 1×non-essential amino acids, 500 μg/ml G418 0.5×antibiotic/antimycotic. After 3 hours of incubation at 37° C./5% CO2 paraquat was added to the cells (final concentration of 32 mM), together with the test compound and the cells were further incubated for 40 hours. Subsequently, LDH activity was determined using Promega Cytotox 96 Non-Radioactive cytotoxicity assay, (Cat. G1780) according the supplier's instructions.
This α-synuclein expressing neuroblastoma cells made it possible to assess the ability of novel compounds to counteract α-synuclein cytotoxicity. […] Since this method monitors leaked LDH from degenerated or dead cells only non-toxic compounds will be identified as active inhibitors of α-synuclein-mediated cytotoxicity. Lack of toxicity is an important characteristic for compounds to be used as a medicament to patients in need. A compound was considered to be active in this test when it inhibits α-synuclein cytotoxicity by more than 25% relative to untreated M17-SYNwt cells at a concentration of 20 μg/mL or lower. In the experiments, the control group consisted of M17-SYNwt cells treated with DMSO, the untreated paraquat group consisted of M17-SYNwt cells treated with paraquat and DMSO, and the treated paraquat group consisted of M17-SYNwt cells treated with paraquat and the test compound dissolved in DMSO.
Percent inhibition was calculated as the synuclein toxicity inhibition by the compound in treated paraquat cells, relative to the synuclein cytotoxicity in untreated paraquat cells.
The compounds from table 1 were screened for activity using the α-synuclein cytotoxicity assay as described above. Dose responses were carried out on all compounds found to be active (10 point curves in duplicate).

M17-SYNwt cells [2] = assay type: cell-based, human; details: M17-SYNwt cells treated with paraquat; not seen in M17 cells; FIG. 1
Text: as §1, §2

Row | Compound | EC50 (M17-SYNwt cells [1]; Homo sapiens, M17-SYNwt cells, paraquat 32 mM, 40 hours, LDH activity) | % inh. (percentage inhibition) (M17-SYNwt cells [1]; inhibition of synuclein toxicity at most effective concentration relative to untreated paraquat cells) | level of LDH leaked into the medium (M17-SYNwt cells [2])
1 | Cc1ccc(S(=O)(=O)N2CCN(c3nc(-c4cccs4)cs3)CC2)cc1 [Compound 78, 1-(4-(thiophen-2-yl)thiazol-2-yl)-4-tosylpiperazine] | 316 nM | 84% | 
2 | C[n+]1ccc(-c2cc[n+](C)cc2)cc1 [paraquat] |  |  | relatively high level

Reference: patent US8722681B2, “N-sulfonyl thiazolylpiperazine derivatives and related N-sulfonyl heterocyclic derivatives for the treatment of neuro degenerative diseases” (NV reMYND, priority 2007, dated 2014)
